Source: patent US20030027819A1, “Beta-sheet mimetics and methods relating to the use thereof” (Molecumetics Ltd., priority 1996, published 2003)
Read-outs that look alike come from different tables or passages of the source. Each block holds one compound with its values, some of them ahead of it.

Key:
control plasma = assay: Prothrombin time (PT) in control plasma; assay type: biochemical
Protocol: Then 200 μl of prewarmed (at 37° C. for ˜10 minutes) thromboplastin with calcium (from Sigma) was rapidly added into the plasma sample.

thioredoxin = assay: Insulin disulfide reduction by thioredoxin (turbidity at 650 nm); conditions: 8 μM thioredoxin, 0-100 μM compound, 60 minutes
[1] = system: TNF induced V-CAM expression in human umbilical vein entothelial cells (HUVEC); assay: Inhibition of TNF induced V-CAM expression in HUVEC; assay type: cell-based
Protocol: Upon stimulation with inflammatory cytokines, HUVEC express cell surface adhesion molecules, including E-selectin, V-CAM, and I-CAM. Proteasome antagonists inhibit TNFα induced expression of these adhesion molecules, thereby providing a mechanism for regulating leucocyte adhesion and the inflammatory response.
More specifically, compounds (65), (68), (69) and (71) were assayed by the procedures set forth by Deisher, Kaushansky and Harlan (“Inhibitors of Topoisomerase II Prevent Cytokine-Induced Expression of Vascular Cell Adhesion Molecule-1, While Augmenting the Expression of Endothelial Leukocyte Adhesion Molecule-1 on Human Umbilical Vein Endothelial Cells,” Cell Adhesion Commun. 1:133-42, 1993) (incorporated herein by reference), with the exception that tetramethyl benzidine was used in place of o-phenylenediamine-peroxide.

factor VII = factor VII (Homo sapiens, UniProt P08709); assay: Factor VII inhibition assay (Ki, Example 5); assay type: biochemical
factor VII, sequence (P08709 213-466 limits assumed): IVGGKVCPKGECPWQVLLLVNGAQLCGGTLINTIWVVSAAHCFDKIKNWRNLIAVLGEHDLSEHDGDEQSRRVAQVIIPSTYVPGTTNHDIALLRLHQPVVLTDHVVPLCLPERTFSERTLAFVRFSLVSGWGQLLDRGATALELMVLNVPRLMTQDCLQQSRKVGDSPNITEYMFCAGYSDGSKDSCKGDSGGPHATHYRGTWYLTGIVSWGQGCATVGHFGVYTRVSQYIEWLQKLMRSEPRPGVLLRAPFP
factor VII, sequence (P08709 61-212 limits assumed): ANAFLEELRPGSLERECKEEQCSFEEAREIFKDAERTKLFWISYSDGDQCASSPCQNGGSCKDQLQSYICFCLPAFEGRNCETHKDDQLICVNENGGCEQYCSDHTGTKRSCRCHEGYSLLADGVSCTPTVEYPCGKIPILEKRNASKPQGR
factor VII, sequence (P13726 33-295 partner): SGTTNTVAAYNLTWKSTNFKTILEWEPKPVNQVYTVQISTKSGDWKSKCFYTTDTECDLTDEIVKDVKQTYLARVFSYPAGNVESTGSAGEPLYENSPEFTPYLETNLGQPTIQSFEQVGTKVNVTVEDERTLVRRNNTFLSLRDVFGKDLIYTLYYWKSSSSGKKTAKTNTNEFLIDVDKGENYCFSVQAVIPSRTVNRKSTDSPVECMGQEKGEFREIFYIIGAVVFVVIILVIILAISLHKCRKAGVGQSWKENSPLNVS
Protocol: (§1) The reaction progress curves were recorded by reading the plates, typically 60 times with 30 second to 2 minute intervals. Initial rates were determined by unweighted nonlinear least-squares fitting to a first order reaction in GraFit (Erithacus Software Limited, London, England).
From this concentration point seven more sequential dilutions were made for the assay.

factor X = factor X (Bos taurus, UniProt P00743); assay: Factor X inhibition assay (Ki, Example 5), bovine plasma enzyme; assay type: biochemical; conditions: bovine plasma enzyme (Example 5 protocol)
factor X, sequence (P00743 234-492 limits assumed): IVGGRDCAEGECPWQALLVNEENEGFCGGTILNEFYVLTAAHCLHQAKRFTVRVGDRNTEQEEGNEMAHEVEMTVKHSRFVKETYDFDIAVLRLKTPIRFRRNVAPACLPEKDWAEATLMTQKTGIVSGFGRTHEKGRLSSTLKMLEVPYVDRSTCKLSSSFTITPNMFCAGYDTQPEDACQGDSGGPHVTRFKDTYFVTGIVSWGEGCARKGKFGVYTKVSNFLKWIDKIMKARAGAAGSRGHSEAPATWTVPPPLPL
factor X, sequence (P00743 41-180 limits assumed): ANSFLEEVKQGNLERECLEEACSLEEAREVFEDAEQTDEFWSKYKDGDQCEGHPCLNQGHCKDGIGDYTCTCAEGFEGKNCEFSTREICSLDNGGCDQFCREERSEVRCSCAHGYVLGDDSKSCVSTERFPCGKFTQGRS
Protocol: as §1, with “The hydrolysis of chromogenic substrates was monitored at 405 nm. The” for “The”
Buffer and substrate were the same as used for thrombin assay. A 1:100 dilution was made in the pH8.0 tris buffer to serve as the first point. Seven more dilutions from the first were made for the assay.

trypsin = target: T1, trypsin (Bos taurus, UniProt P00760); assay: Trypsin inhibition assay (Ki, Example 5); assay type: biochemical, bovine
T1 sequence (P00760 24-246): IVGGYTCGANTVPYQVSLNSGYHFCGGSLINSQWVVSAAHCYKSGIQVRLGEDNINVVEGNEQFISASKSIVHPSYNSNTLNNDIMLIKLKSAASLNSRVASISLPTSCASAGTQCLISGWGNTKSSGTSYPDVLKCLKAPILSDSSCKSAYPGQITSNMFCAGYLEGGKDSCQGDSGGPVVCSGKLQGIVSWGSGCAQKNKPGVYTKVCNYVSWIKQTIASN
Protocol: as §1

Factor XI = Factor XI (Homo sapiens, UniProt P03951); assay: Factor XI inhibition assay (Ki, Example 8); assay type: biochemical
Factor XI, sequence (P03951 388-625 limits assumed): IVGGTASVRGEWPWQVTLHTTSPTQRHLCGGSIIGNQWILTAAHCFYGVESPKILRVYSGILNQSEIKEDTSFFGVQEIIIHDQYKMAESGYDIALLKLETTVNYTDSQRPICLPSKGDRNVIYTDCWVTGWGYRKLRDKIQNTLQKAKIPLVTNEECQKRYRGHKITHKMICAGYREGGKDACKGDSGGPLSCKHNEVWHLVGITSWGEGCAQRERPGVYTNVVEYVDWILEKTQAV
Factor XI, sequence (P03951 19-387 limits assumed): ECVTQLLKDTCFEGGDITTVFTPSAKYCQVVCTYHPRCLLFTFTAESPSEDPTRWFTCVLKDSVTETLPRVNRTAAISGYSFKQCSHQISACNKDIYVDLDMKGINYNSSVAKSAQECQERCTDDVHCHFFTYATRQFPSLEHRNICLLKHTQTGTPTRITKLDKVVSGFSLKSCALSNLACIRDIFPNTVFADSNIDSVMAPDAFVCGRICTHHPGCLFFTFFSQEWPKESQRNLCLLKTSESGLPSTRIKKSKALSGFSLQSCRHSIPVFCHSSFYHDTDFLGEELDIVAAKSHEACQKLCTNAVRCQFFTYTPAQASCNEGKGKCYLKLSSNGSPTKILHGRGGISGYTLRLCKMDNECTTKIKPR
Protocol: as §1
Factor XI. The same buffer was utilized in this assay as in the thrombin assay. […] From this 100 μM solution, seven serial 1:5 dilutions were made in buffer for assay.

thrombin [2] = target: T2, thrombin (Bos taurus, UniProt P00735); assay: Thrombin inhibition assay (Ki, Example 5); assay type: biochemical, bovine; design: thrombin; bovine plasma; 0.66; from tissue; host or cells: bovine plasma
Protocol: as §1
Seven sequential dilutions were made from the first point for the assay.

urokinase = urokinase (Homo sapiens, UniProt P00749); assay: Urokinase inhibition assay (Ki, Example 5); assay type: biochemical
[3] = target: Tissue Plasminogen Activator (t-PA) (Homo sapiens, UniProt P00750); assay: t-PA inhibition assay (Ki, Example 5); assay type: biochemical
Tissue Plasminogen Activator (t-PA), sequence (P00750 36-562): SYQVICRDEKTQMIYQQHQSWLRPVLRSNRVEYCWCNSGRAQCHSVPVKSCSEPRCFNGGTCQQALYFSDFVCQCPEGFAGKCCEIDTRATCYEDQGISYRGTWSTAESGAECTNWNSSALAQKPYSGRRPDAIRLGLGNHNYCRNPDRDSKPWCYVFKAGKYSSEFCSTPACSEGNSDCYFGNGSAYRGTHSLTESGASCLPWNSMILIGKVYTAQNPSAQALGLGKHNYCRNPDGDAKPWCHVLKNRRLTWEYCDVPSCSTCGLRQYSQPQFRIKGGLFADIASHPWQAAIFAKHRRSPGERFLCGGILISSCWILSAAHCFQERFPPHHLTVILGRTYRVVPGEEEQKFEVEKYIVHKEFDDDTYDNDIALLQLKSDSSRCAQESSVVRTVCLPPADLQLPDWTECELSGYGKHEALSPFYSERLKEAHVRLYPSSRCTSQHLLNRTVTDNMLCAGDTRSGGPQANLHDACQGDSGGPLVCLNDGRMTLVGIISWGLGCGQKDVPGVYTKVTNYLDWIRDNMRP
Protocol: as §1

Plasmin = Plasmin (Bos taurus, UniProt P06868); assay: Plasmin inhibition assay (Ki, Example 5); assay type: biochemical, bovine
Plasmin, sequence (P06868 584-812 limits assumed): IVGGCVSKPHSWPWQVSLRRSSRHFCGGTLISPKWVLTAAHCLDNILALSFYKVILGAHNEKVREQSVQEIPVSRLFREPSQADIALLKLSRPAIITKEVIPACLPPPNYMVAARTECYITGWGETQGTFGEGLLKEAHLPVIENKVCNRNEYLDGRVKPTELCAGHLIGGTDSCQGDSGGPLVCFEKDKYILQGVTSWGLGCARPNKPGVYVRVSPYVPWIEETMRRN
Plasmin, sequence (P06868 104-583 limits assumed): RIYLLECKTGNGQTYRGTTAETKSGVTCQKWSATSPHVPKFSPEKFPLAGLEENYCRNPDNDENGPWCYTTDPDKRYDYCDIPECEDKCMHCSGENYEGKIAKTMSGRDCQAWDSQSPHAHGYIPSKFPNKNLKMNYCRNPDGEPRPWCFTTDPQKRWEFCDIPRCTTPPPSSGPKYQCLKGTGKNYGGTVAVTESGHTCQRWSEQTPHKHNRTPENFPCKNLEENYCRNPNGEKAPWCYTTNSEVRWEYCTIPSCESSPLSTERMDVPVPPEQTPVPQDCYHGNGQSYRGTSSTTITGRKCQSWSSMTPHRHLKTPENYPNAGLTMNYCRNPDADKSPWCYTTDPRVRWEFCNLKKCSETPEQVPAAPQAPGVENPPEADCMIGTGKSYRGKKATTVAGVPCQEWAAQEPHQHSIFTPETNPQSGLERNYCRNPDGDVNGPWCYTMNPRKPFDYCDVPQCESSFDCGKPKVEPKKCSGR
Protocol: as §1

[4] = Pharmacodynamic and pharmacokinetic study in rats; assay type: in vivo, male Sprague Dawley rats; conditions: rat; for half-life: read-out: terminal halflife (converted)
Protocol: Specifically, a pharmacodynamic and pharmacokinetic study of structure (20b) was conducted in male Sprague Dawley rats. […] Groups of rats (n ═3 or 4) were sacrificed and exsanguinated at 0.25, 0.5, 1, 2, 4 and 8 hours following dosing. Efficacy parameters, aPTT and TT, were measured for each plasma sample.

thrombin [5] = target: T2, thrombin; assay: Thrombin inhibition by solid phase compounds of Tables 11-15; assay type: biochemical; design: 100 μl of 10 μM thrombin solution; conditions: mixtures of diastereomers; read-out: Ki as thrombin inhibitors (mark at Cpd. No.)
Protocol: Following extensive washing with DMF, the resin was treated with the acid fluoride of N-Fmoc-4-aminomethylbenzoic acid, or (81), or (86) and Hunigs' base in DMF until the Kaiser test was negative. Alternatively, the Fmoc-protected thiazole-(75) or imidazole-based (77) linkers were coupled to the resin using BOP, HOBt and DIEA. In some instances Fmoc-Leu or another amino acid was attached to the resin prior to the thiazole-(75) or imidazole-based (77) linkers via the same methodology. […] Following washing with DMF a dienoic acid was coupled to the resin-bound linkers using PyBOP, HOBt and Hunigs' base in DMF until the result of a Kaiser test was negative. The cycloaddition was performed by pretreatment of a solution of a pyrazolidinedione (not shown) or urazole in DMF with a solution of [bis(trifluoroacetoxy)iodo]benzene in DMF. […] The resin was then washed with DMF and CH2Cl2. Oxidation to the ketoamide was effected by treatment of the resin with a solution of Dess-Martin periodinane in DMSO for 60 min. […] The supernatant was collected and the resin was washed with additional TFA. The combined filtrates were concentrated in vacuo. The residue was precipitated with diethyl ether and the ether was decanted. The resulting solid was reconstituted in 1:1 CH3CN:H2O and lyophilized. […] The compounds were assayed for inhibition of coagulation enzymes as mixtures of diastereomers.

- Ki (factor VII): 270 nM
- Ki (factor X): 966 nM
- Ki (urokinase): 600 nM
- Ki ([3]; read-out: Ki t-PA): 495 nM
- Ki (Plasmin): 415 nM
- Ki (Factor XI): 27 nM
- half-life ([4]; male, Sprague Dawley, plasma, 4 mg/kg IV): 7.5 h
- bioavailability ([4]; male, Sprague Dawley, plasma, 10 mg/kg PO vs 4 mg/kg IV, read-out: bioavailability of orally administered compound): ~27%
- half-life ([4]; male, Sprague Dawley, plasma, 10 mg/kg PO): 4.5 h
Compound: N=C(N)NCCC[C@H](NC(=O)[C@@H]1CCN2CC[C@@](N)(Cc3ccccc3)C(=O)N12)C(=O)c1nc2ccccc2s1 [Structure 20b]
- Efficacy parameters aPTT and TT (FIGS. 4A and 4B) ([4]; 4 mg/kg IV and 10 mg/kg PO): in vivo efficacy

- Ki (factor VII): 270 nM
- Ki (urokinase): 600 nM
- Ki ([3]; read-out: Ki tPA (tissue Plasminogen Activator)): 495 nM
- Ki (Plasmin): 415 nM
- Ki (Factor XI): 27 nM
Compound: N=C(N)NCCC[C@H](NC(=O)[C@@H]1CCN2CC[C@@](N)(Cc3ccccc3)C(=O)N12)C(=O)c1nc2ccccc2s1 [20^b]

- Ki (thrombin [5]): < 10 nM
Compound: CC(CC1C=CC(C(=O)NC(CCCCN)C(=O)C(=O)NCCc2ccc(C(N)=O)cc2)n2c(=O)n(Cc3ccc(C(F)(F)F)cc3)c(=O)n21)CC(C)(C)C (stereo not drawn) [Structure 133]

- Ki (thrombin [5]): < 10 nM
Compound: CC(CC1C=CC(C(=O)NC(CCCCN)C(=O)C(=O)NCCc2ccc(C(N)=O)cc2)n2c(=O)n(-c3ccc(C(C)(C)C)cc3)c(=O)n21)CC(C)(C)C (stereo not drawn) [Structure 128]

- Ki (thrombin [5]): < 10 nM
Compound: CC(C)(C)CC1C=CC(C(=O)NC(CCCCN)C(=O)C(=O)NCCc2ccc(C(N)=O)cc2)n2c(=O)n(C(c3ccccc3)c3ccccc3)c(=O)n21 (stereo not drawn) [Structure 141]

- Ki (thrombin [5]): < 10 nM
Compound: CC(CC1C=CC(C(=O)NC(CCCCN)C(=O)C(=O)NCCc2ccc(C(N)=O)cc2)n2c(=O)n(C(Cc3ccccc3)c3ccccc3)c(=O)n21)CC(C)(C)C (stereo not drawn) [Structure 129]

- Ki (thrombin [5]): < 10 nM
Compound: CC(C)(C)CC1C=CC(C(=O)NC(CCCCN)C(=O)C(=O)NCCc2ccc(C(N)=O)cc2)n2c(=O)n(Cc3ccccc3)c(=O)n21 (stereo not drawn) [Structure 140]

- Ki (thrombin [5]): < 10 nM
Compound: CC1=CC(C(=O)NC(CCCNC(=N)N)C(=O)c2nc(C(N)=O)cs2)n2c(=O)n(CC(c3ccccc3)c3ccccc3)c(=O)n2C1 (stereo not drawn) [Structure 198]

- Ki (thrombin [5]): < 10 nM
Compound: NCCCCC(NC(=O)C1C=C2CCCCC2n2c(=O)n(CCc3cccs3)c(=O)n21)C(=O)C(=O)NCCc1ccc(C(N)=O)cc1 (stereo not drawn) [Structure 119]

- Ki (thrombin [5]): < 10 nM
Compound: CC(C)CC1C=CC(C(=O)NC(CCCCN)C(=O)C(=O)NCc2ccc(C(N)=O)cc2)n2c(=O)n(Cc3cccs3)c(=O)n21 (stereo not drawn) [Structure 110]

- Ki (thrombin [5]): < 10 nM
Compound: CC(CC1C=CC(C(=O)NC(CCCCN)C(=O)C(=O)NCCc2ccc(C(N)=O)cc2)n2c(=O)n(CC(c3ccccc3)c3ccccc3)c(=O)n21)CC(C)(C)C (stereo not drawn) [Structure 130]

Second part, the compound before the results:

Compound: N=C(N)NCCC[C@H](NC(=O)[C@@H]1CCN2CC[C@@](N)(Cc3ccccc3)C(=O)N12)C(=O)CCl [Structure 13b]
- PT (control plasma; Concentration 1 pM): 13 s
- PT (control plasma; Concentration 10 pM): 17 s
- PT (control plasma; Concentration 50 pM): 18 s
- PT (control plasma; Concentration 100 pM): 23 s
- PT (control plasma; Concentration 200 pM): 24 s
- PT (control plasma; Concentration 500 pM): 27 s
- PT (control plasma; Concentration 1 nM): 30 s
- PT (control plasma; Concentration 10 nM): 31 s
- PT (control plasma; Concentration 30 nM): 31 s
- PT (control plasma; Concentration 50 nM): 30 s
- PT (control plasma; Concentration 80 nM): 33 s

Compound: COC(=O)/C=C/C(=O)C1C=CC(C)n2c(=O)n(-c3ccccc3)c(=O)n21 (stereo not drawn) [Structure 233]
- thioredoxin-induced turbidity of insulin at 650 nM (thioredoxin): turbidity decreases with increasing concentration

Compound: COC(=O)C#CC(O)c1cccc2c1C(=O)N(c1ccccc1)C2=O (stereo not drawn) [Structure 71]
- IC50 [1]: 4900 ± 180 nM

Compound: N=C(N)NCCC[C@H](NC(=O)[C@@H]1CC[C@@H]2CC[C@](N)(Cc3ccccc3)C(=O)N21)C(=O)c1nc2ccccc2s1 [Structure 29a]
- Ki (factor VII): 1800 nM
- Ki (factor X): 4600 nM
- Ki (trypsin): 0.54 nM
- Ki (Factor XI): 391 nM
- Ki (thrombin [2]): 10.4 nM

Compound: COC(=O)C#CC(O)C1C=CC(C)n2c(=O)n(-c3ccccc3)c(=O)n21 (stereo not drawn) [Structure 231]
- thioredoxin-induced turbidity of insulin at 650 nM (thioredoxin): turbidity decreases with increasing concentration

Compound: O=C(CCl)c1cccc2c1C(=O)N(c1ccccc1)C2=O [Structure 65]
- IC50 [1]: 9600 ± 100 nM

Compound: O=C(CCl)C1CCCn2c(=O)n(-c3ccccc3)c(=O)n21 (stereo not drawn) [Structure 68]
- IC50 [1]: 14200 ± 800 nM

Compound: CC1C=CC(C=O)n2c(=O)n(-c3ccccc3)c(=O)n21 (stereo not drawn) [Structure 69]
- IC50 [1]: 32400 ± 1700 nM

Compound: CC1=CC(C(=O)NCC2CCC(N)CC2)n2c(=O)n(CCS(=O)(=O)c3ccccc3)c(=O)n2C1 (stereo not drawn) [Structure 221-5]
- Ki (thrombin [5]): < 10 nM

Compound: CC1=C2[C@H]3OC(=O)[C@@H](C)[C@@H]3CC[C@@]2(C)C=CC1=O [Santonin, reference compound]
- thioredoxin-induced turbidity of insulin at 650 nM (thioredoxin): did not block thioredoxin-induced turbidity of insulin
